Data as given in article PMC6287599, “2,6-Bis(2-Benzimidazolyl)Pyridine (BBP) Is a Potent and Selective Inhibitor of Small Conductance Calcium-Activated Potassium (SK) Channels” (Frontiers in Pharmacology, 2018).

Legend:
hSK3 = hSK3 (Homo sapiens, UniProt Q9UGI6); test: Automated patch clamp (QPatch 16), whole cell, stable HEK293 cell line expressing hSK3; assay type: cell-based; conditions: HEK stable line, 400 nM free intracellular calcium, mean ± SEM, n = 9
Method: Three different stable HEK293 cell lines expressing hSK1, hSK2 or hSK3 (NeuroSearch A/S, Ballerup, Denmark) and a CHO stable cell line expressing hERG (University of Copenhagen, Copenhagen, Denmark) were used for automated patch clamp. These cells were cultivated and prepared as previously described (Skarsfeldt et al., [2016]).
Automated patch clamp (QPatch 16, Sophion, Denmark) on SK-expressing HEK293 cell lines was conducted as previously described (Simó-Vicens et al., [2017b]). Briefly, SK currents were elicited by voltage-ramps starting at −80 mV and finishing at +80 mV from a holding potential of 0 mV. Extracellular solution contained 0.1 mM CaCl2, 3 mM MgCl2, 154 mM KCl, 10 mM HEPES and 10 mM glucose with pH 7.4. Intracellular solution for SK experiments contained 8.106 mM CaCl2 (final free calcium concentration of 400 nM), 1.167 mM MgCl2, 10 mM EGTA, 154 mM KCl, 10 mM HEPES, 31.25/ 10 mM KOH/EGTA and 15 mM KOH with pH 7.2. Automated patch clamp on hERG-expressing CHO cell line was performed also as previously described (Skarsfeldt et al., [2016]).
Individual IC50 values were calculated for each cell with the built-in nonlinear fit log(inhibitor) vs. normalized response equation:
Where Y is the normalized response, from 100, corresponding to current recorded during saline perfusion, down to 0, corresponding to currents recorded in the presence of bicuculline methiodide 100 μM. […]

hSK2 = hSK2 (Homo sapiens, UniProt Q9H2S1); test: Manual whole cell patch clamp, HEK293 transiently transfected with hSK2; assay type: cell-based; conditions: BBP 1 μM, compared to positive control bicuculline methiodide 100 μM, n = 5, read-out: Inhibition of hSK2 current
Method: HEK293 cells were transiently co-transfected with the plasmid of interest (hBK, hSK1, hSK2, hSK3 WT, rSK3 H491N, or hIK) and eGFP using standard Lipofectamine™ 2000 (Thermo Fisher Scientific, Waltham, Massachussets, USA) transfection protocols. After transfection, cells were incubated overnight before the experiments.
Manual patch clamp experiments were performed at room temperature in the whole cell configuration with a HEKA EPC9 amplifier and the Patchmaster software (HEKA Elektronik, Ludwigshafen, Germany). All currents were elicited every 2 s using an incremental 200 ms voltage-ramp protocol starting at −80 mV and finishing at +80 mV from a holding potential of 0 mV. […] Currents were measured using the same solutions as the ones used for automated patch clamp, with symmetrical potassium concentrations and a free intracellular calcium concentration of 400 nM. […]
To assess the effect of BBP on other calcium-activated potassium channels (hBK, hSK3 WT, rSK3 H491N, and hIK), each individual current was first normalized to its cell size using membrane's capacitance (pA/pF) before statistical analysis. […] Statistical significance between saline and the effect of both BBP and the corresponding reference compound was determined for each channel using one-way ANOVA analysis. […]

SMILES: c1cc(-c2nc3ccccc3[nH]2)nc(-c2nc3ccccc3[nH]2)c1 [BBP, 2,6-Bis(2-benzimidazolyl)pyridine]
- IC50 (hSK3): 400 ± 200 nM
- inhibition at 1 µM (hSK2): 94.8 ± 2.1%
